{"source": "patent US4545932A", "about": "“Glucosaminyl muramyl peptide derivatives” (Dainippon Pharmaceutical Co., Ltd., priority 1982, dated 1985)", "assay_type_in_all_cases": "in vivo", "key": {"[1]": {"test_system": "Staphylococcus aureus No. 50774", "test": "Prophylactic effect on experimental infection, Staphylococcus aureus", "conditions": "Std-ddY male mice, 14 days after infection", "description": "(§1) Std-ddY male mice weighing about 23 g (each group: 8 mice) were used. Test compounds dissolved in a physiological saline solution were each intravenously administered to mice once a day 1, 2 and 3 days before the infection. Twenty-four hours after the final administration of test compounds, the mice were infected with various microorganisms suspended in saline (in case of Staphylococcus aureus and Candida albicans) or in Trypto-Soy Broth (manufactured by Eiken Chemical Co., Ltd., Japan) (in case of Pseudomonas aeruginosa and Escherichia coli) under the conditions as shown in Table 1. When the experiment was repeated twice or more, the data were pooled.\n(§2) ^a Test compounds were intravenously administered once a day 1, 2 and\n(§3) 3 days before infection.\n(§4) ^b Figures represent (number of survivals)/(number of animals tested)\n(§5) and figures in parenthesis represent percent survival."}, "[2]": {"test_system": "Pseudomonas aeruginosa No. 12", "test": "Prophylactic effect on experimental infection, Pseudomonas aeruginosa", "conditions": "Std-ddY male mice, 7 days after infection", "description": "as §1, §2, §3, §4, §5"}, "[3]": {"test_system": "Escherichia coli P-5101", "test": "Prophylactic effect on experimental infection, Escherichia coli", "conditions": "Std-ddY male mice, 7 days after infection", "description": "as §1, §2, §3, §4, §5"}, "[4]": {"test_system": "Candida albicans 3170", "test": "Prophylactic effect on experimental infection, Candida albicans", "conditions": "Std-ddY male mice, 7 days after infection", "description": "as §1\n3170 fungal sus- infection\nas §2, §3, §4, §5"}, "[5]": {"test": "Pyrogenicity in rabbits", "conditions": "for Pyrogenicity in rabbits: injected into ear vein, three rabbits per group", "method": "Rabbits (each group: three rabbits) were used. Test compounds dissolved in a physiological saline solution were each injected into ear vein of rabbits. The difference between maximum body temperature within three hours after the injection of test compound and the body temperature before the injection was regarded as rise in body temperature. The degree of pyrogenicity was evaluated according to the following criterion: […]"}, "[6]": {"test": "Acute toxicity in mice", "conditions": "mortality for 14 days", "method": "Male and female ICR mice aged about 6 weeks (each group: 8 mice) were used. The compound of Example 15 was dissolved in distilled water and administered to mice. Mortality was checked for 14 days and LD50 was calculated by probit method."}, "[7]": {"test_system": "various microorganisms", "test": "Antiinfectious effect in mice", "conditions": "summary of Table 2; mice", "description": "as §1\nBesides, as to the compounds of Examples 8, 18, 36, 37 and 45 (derivatives of GMP3 -A), similar experiments were done."}, "[8]": {"conditions": "Dose 0.05 mg/kg i.v. once a day 1, 2 and 3 days before infection"}, "[9]": {"conditions": "Dose 0.125 mg/kg i.v. once a day 1, 2 and 3 days before infection"}, "[10]": {"conditions": "Dose 0.2 mg/kg i.v. once a day 1, 2 and 3 days before infection"}, "[11]": {"conditions": "Dose 0.8 mg/kg i.v. once a day 1, 2 and 3 days before infection"}, "[12]": {"conditions": "Dose 3.1 mg/kg i.v. once a day 1, 2 and 3 days before infection"}, "[13]": {"conditions": "Dose 12.5 mg/kg i.v. once a day 1, 2 and 3 days before infection"}, "[14]": {"conditions": "Dose 0.0125 mg/kg i.v. once a day 1, 2 and 3 days before infection"}, "[15]": {"conditions": "Dose 50 mg/kg i.v. once a day 1, 2 and 3 days before infection"}}, "data": [{"molecule": "CCCCCCCCCCCCCCCCCC(=O)NC(CCCC(NC(=O)CCC(NC(=O)C(C)NC(=O)C(C)OC1C(NC(C)=O)C(O)OC(CO)C1OC1OC(CO)C(O)C(O)C1NC(C)=O)C(N)=O)C(=O)NC(C)C(=O)[O-])C(N)=O.[Na+]", "note": "[Example 15, sodium β-N-acetylglucosaminyl(1→4)-N-acetylmuramyl-L-alanyl-D-isoglutaminyl-(L)-stearoyl-(D)-meso-2,6-diaminopimelic acid-(D)-amide(L)-D-alanate]", "values": [{"measurement": "(number of survivals)/(number of animals tested)", "setting": "[1]; [8]", "result": "9/16"}, {"measurement": "percent survival", "setting": "[1]; [8]", "result": 56.3, "unit": "%"}, {"measurement": "(number of survivals)/(number of animals tested)", "setting": "[1]; [9]", "result": "3/16"}, {"measurement": "percent survival", "setting": "[1]; [9]", "result": 18.8, "unit": "%"}, {"measurement": "(number of survivals)/(number of animals tested)", "setting": "[1]; [10]", "result": "13/16"}, {"measurement": "percent survival", "setting": "[1]; [10]", "result": 81.3, "unit": "%"}, {"measurement": "(number of survivals)/(number of animals tested)", "setting": "[1]; [11]", "result": "13/16"}, {"measurement": "percent survival", "setting": "[1]; [11]", "result": 81.3, "unit": "%"}, {"measurement": "(number of survivals)/(number of animals tested)", "setting": "[1]; [12]", "result": "15/16"}, {"measurement": "percent survival", "setting": "[1]; [12]", "result": 93.8, "unit": "%"}, {"measurement": "(number of survivals)/(number of animals tested)", "setting": "[1]; [13]", "result": "13/16"}, {"measurement": "percent survival", "setting": "[1]; [13]", "result": 81.3, "unit": "%"}, {"measurement": "(number of survivals)/(number of animals tested)", "setting": "[2]; [14]", "result": "12/32"}, {"measurement": "percent survival", "setting": "[2]; [14]", "result": 37.5, "unit": "%"}, {"measurement": "(number of survivals)/(number of animals tested)", "setting": "[2]; [8]", "result": "14/32"}, {"measurement": "percent survival", "setting": "[2]; [8]", "result": 43.8, "unit": "%"}, {"measurement": "(number of survivals)/(number of animals tested)", "setting": "[2]; [10]", "result": "15/32"}, {"measurement": "percent survival", "setting": "[2]; [10]", "result": 46.9, "unit": "%"}, {"measurement": "(number of survivals)/(number of animals tested)", "setting": "[2]; [11]", "result": "14/24"}, {"measurement": "percent survival", "setting": "[2]; [11]", "result": 58.3, "unit": "%"}, {"measurement": "(number of survivals)/(number of animals tested)", "setting": "[2]; [12]", "result": "14/16"}, {"measurement": "percent survival", "setting": "[2]; [12]", "result": 87.5, "unit": "%"}, {"measurement": "(number of survivals)/(number of animals tested)", "setting": "[2]; [13]", "result": "8/8"}, {"measurement": "percent survival", "setting": "[2]; [13]", "result": 100, "unit": "%"}, {"measurement": "(number of survivals)/(number of animals tested)", "setting": "[3]; [8]", "result": "6/16"}, {"measurement": "percent survival", "setting": "[3]; [8]", "result": 37.5, "unit": "%"}, {"measurement": "(number of survivals)/(number of animals tested)", "setting": "[3]; [10]", "result": "7/16"}, {"measurement": "percent survival", "setting": "[3]; [10]", "result": 43.8, "unit": "%"}, {"measurement": "(number of survivals)/(number of animals tested)", "setting": "[3]; [11]", "result": "10/16"}, {"measurement": "percent survival", "setting": "[3]; [11]", "result": 62.5, "unit": "%"}, {"measurement": "(number of survivals)/(number of animals tested)", "setting": "[3]; [12]", "result": "11/16"}, {"measurement": "percent survival", "setting": "[3]; [12]", "result": 68.8, "unit": "%"}, {"measurement": "(number of survivals)/(number of animals tested)", "setting": "[3]; [13]", "result": "11/16"}, {"measurement": "percent survival", "setting": "[3]; [13]", "result": 68.8, "unit": "%"}, {"measurement": "(number of survivals)/(number of animals tested)", "setting": "[3]; [15]", "result": "7/8"}, {"measurement": "percent survival", "setting": "[3]; [15]", "result": 87.5, "unit": "%"}, {"measurement": "(number of survivals)/(number of animals tested)", "setting": "[4]; [11]", "result": "3/8"}, {"measurement": "percent survival", "setting": "[4]; [11]", "result": 37.5, "unit": "%"}, {"measurement": "(number of survivals)/(number of animals tested)", "setting": "[4]; [12]", "result": "4/8"}, {"measurement": "percent survival", "setting": "[4]; [12]", "result": 50, "unit": "%"}, {"measurement": "(number of survivals)/(number of animals tested)", "setting": "[4]; [13]", "result": "4/8"}, {"measurement": "percent survival", "setting": "[4]; [13]", "result": 50, "unit": "%"}, {"measurement": "(number of survivals)/(number of animals tested)", "setting": "[4]; [15]", "result": "7/8"}, {"measurement": "percent survival", "setting": "[4]; [15]", "result": 87.5, "unit": "%"}, {"measurement": "Pyrogenicity in rabbits", "setting": "[5]; Dose 0.1 mg/rabbit", "result": "- (one animal showed rise in body temperature of 0.6 °C or more)"}, {"measurement": "Pyrogenicity in rabbits", "setting": "[5]; Dose 0.3 mg/rabbit", "result": "- (one animal showed rise in body temperature of 0.6 °C or more)"}, {"measurement": "Pyrogenicity in rabbits", "setting": "[5]; Dose 1 mg/rabbit", "result": "- (one animal showed rise in body temperature of 0.6 °C or more)"}, {"measurement": "Pyrogenicity in rabbits", "setting": "[5]; Dose 3 mg/rabbit", "result": "± (one animal showed rise in body temperature of 0.6 °C or more)"}, {"measurement": "Pyrogenicity in rabbits", "setting": "[5]; Dose 10 mg/rabbit", "result": "+ (two or more animals showed rise in body temperature of 0.6 °C or more)"}, {"measurement": "pyrogenicity compared with GMP4 -A", "setting": "[5]; summary of Table 3, rabbits", "result": "less pyrogenicity than GMP4 -A"}, {"measurement": "LD50", "setting": "[6]; i.p., female ICR mice", "result": "> 600", "unit": "mg/kg"}, {"measurement": "LD50", "setting": "[6]; i.p., male ICR mice", "result": "> 600", "unit": "mg/kg"}, {"measurement": "LD50", "setting": "[6]; i.v., female ICR mice, probit method, 95% confidence limits in parenthesis", "result": "266 (237-297) mg/kg"}, {"measurement": "LD50", "setting": "[6]; i.v., male ICR mice, probit method, 95% confidence limits in parenthesis", "result": "292 (261-328*) mg/kg"}, {"measurement": "LD50", "setting": "[6]; p.o., female ICR mice", "result": "> 3000", "unit": "mg/kg"}, {"measurement": "LD50", "setting": "[6]; p.o., male ICR mice", "result": "> 3000", "unit": "mg/kg"}, {"measurement": "LD50", "setting": "[6]; s.c., female ICR mice", "result": "> 600", "unit": "mg/kg"}, {"measurement": "LD50", "setting": "[6]; s.c., male ICR mice", "result": "> 600", "unit": "mg/kg"}, {"measurement": "antiinfectious effect compared with GMP4 -A", "setting": "[7]", "result": "more potent antiinfectious effect"}]}]}
